For the test, the target named is recombinant full length HPK-1 enzyme (Homo sapiens (Human), UniProt Q92918). Kind of test: HPK-1 biochemical enzyme assay (ADP-Glo kinase inhibition). The settings on record: recombinant full length HPK-1 6.8 nM, 10 μM ATP, 12.5 μM MBP, 30 mins at 25° C. The procedure, abridged:
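ADP-Glo readout of ADP formed after a 30 min, 25° C. reaction of 6.8 nM full-length HPK-1 with swine myelin basic protein (12.5 μM) and ATP (10 μM) in Tris pH 7.4 buffer with MgCl2, DTT and BSA. Ten compound concentrations tested; percent inhibition set against vehicle (0%) and no-enzyme (100%) controls gave IC50.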
Chain of recombinant full length HPK-1 enzyme (Q92918 whole entry, species assumed): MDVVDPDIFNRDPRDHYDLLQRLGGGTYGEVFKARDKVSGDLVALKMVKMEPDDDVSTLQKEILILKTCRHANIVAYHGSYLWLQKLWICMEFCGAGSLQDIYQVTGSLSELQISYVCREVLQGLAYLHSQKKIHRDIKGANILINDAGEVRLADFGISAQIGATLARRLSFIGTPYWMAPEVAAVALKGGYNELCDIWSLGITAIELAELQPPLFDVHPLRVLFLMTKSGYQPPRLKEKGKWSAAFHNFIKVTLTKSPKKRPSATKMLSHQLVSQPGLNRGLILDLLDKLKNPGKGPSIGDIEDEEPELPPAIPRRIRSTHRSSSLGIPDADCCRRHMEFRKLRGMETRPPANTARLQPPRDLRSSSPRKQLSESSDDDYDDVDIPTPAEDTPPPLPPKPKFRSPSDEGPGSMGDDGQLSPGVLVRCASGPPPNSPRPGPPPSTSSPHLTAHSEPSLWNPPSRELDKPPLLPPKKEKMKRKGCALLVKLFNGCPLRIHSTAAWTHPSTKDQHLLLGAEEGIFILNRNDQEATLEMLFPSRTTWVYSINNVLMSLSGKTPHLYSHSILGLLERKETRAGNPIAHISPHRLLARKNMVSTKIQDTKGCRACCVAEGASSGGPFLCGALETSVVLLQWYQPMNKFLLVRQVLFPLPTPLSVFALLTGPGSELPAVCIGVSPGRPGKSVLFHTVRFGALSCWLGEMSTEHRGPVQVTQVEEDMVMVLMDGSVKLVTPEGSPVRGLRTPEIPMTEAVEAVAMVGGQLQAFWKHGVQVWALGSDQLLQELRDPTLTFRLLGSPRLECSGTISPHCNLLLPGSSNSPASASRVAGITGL
For `Cc1c(Nc2cc[nH]c(=O)c2C(=O)Nc2ccc(N3CCN(C(=O)C(C)(C)O)CC3)cc2)cnc2c1NCCO2` [Example 357, N-(4-(4-(2-hydroxy-2-methylpropanoyl)piperazin-1-yl)phenyl)-4-((8-methyl-2,3-dihydro-1H-pyrido[2,3-b][1,4]oxazin-7-yl)amino)-2-oxo-1,2-dihydropyridine-3-carboxamide], the IC50 is at most 10 nM. Turning to `Cc1c(Nc2cc[nH]c(=O)c2C(=O)Nc2ccc(N3CCN(C(=O)C(C)N(C)C)CC3)cc2)cnc2c1NCCO2` (stereo not drawn) [Example 358, N-(4-(4-(dimethylalanyl)piperazin-1-yl)phenyl)-4-((8-methyl-2,3-dihydro-1H-pyrido[2,3-b][1,4]oxazin-7-yl)amino)-2-oxo-1,2-dihydropyridine-3-carboxamide], the IC50 lay in the range of 10 to 100 nM. As for `Cc1c(Nc2cc[nH]c(=O)c2C(=O)Nc2ccc(N3CCN4C(=O)CC[C@H]4C3)cc2)cnc2c1NCCO2` [Example 359, (S)-4-((8-methyl-2,3-dihydro-1H-pyrido[2,3-b][1,4]oxazin-7-yl)amino)-2-oxo-N-(4-(6-oxohexahydropyrrolo[1,2-a]pyrazin-2(1H)-yl)phenyl)-1,2-dihydropyridine-3-carboxamide], the IC50 is 10 to 100 nM. On to `Cc1c(Nc2cc[nH]c(=O)c2C(=O)Nc2ccc(N3CCN(C)CC3)c(F)c2)cnc2c1NCC(C)O2` (stereo not drawn) [Example 360, 4-((3,8-dimethyl-2,3-dihydro-1H-pyrido[2,3-b][1,4]oxazin-7-yl)amino)-N-(3-fluoro-4-(4-methylpiperazin-1-yl)phenyl)-2-oxo-1,2-dihydropyridine-3-carboxamide], for which the IC50 lay in the range of 10 to 100 nM. Then `CCN1CCN(c2ccc(NC(=O)c3c(Nc4cnc5c(c4C)NCC(C)O5)cc[nH]c3=O)cc2F)CC1` (stereo not drawn) [Example 361, 4-((3,8-dimethyl-2,3-dihydro-1H-pyrido[2,3-b][1,4]oxazin-7-yl)amino)-N-(4-(4-ethylpiperazin-1-yl)-3-fluorophenyl)-2-oxo-1,2-dihydropyridine-3-carboxamide], with 10 to 100 nM. As for `CCC(=O)N1CCN(c2ccc(NC(=O)c3c(Nc4cnc5c(c4C)NCC(C)O5)cc[nH]c3=O)cc2)CC1` (stereo not drawn) [Example 362, 4-((3,8-dimethyl-2,3-dihydro-1H-pyrido[2,3-b][1,4]oxazin-7-yl)amino)-2-oxo-N-(4-(4-propionylpiperazin-1-yl)phenyl)-1,2-dihydropyridine-3-carboxamide], the figure is 10 to 100 nM; as for `Cc1ccc(N2CCN(c3ccc(NC(=O)c4c(Nc5cnc6c(c5C)NCCO6)cc[nH]c4=O)cc3)CC2)cn1` [Example 363, 4-((8-Methyl-2,3-dihydro-1H-pyrido[2,3-b][1,4]oxazin-7-yl)amino)-N-(4-(4-(6-methylpyridin-3-yl)piperazin-1-yl)phenyl)-2-oxo-1,2-dihydropyridine-3-carboxamide], 10 to 100 nM; as for `COCc1cc(N2CCN(c3ccc(NC(=O)c4c(Nc5cnc6c(c5C)NCCO6)cc[nH]c4=O)cc3)CC2)ccn1` [Example 364, N-(4-(4-(2-(methoxymethyl)pyridin-4-yl)piperazin-1-yl)phenyl)-4-((8-methyl-2,3-dihydro-1H-pyrido[2,3-b][1,4]oxazin-7-yl)amino)-2-oxo-1,2-dihydropyridine-3-carboxamide], 10 to 100 nM. On to `Cc1c(Nc2cc[nH]c(=O)c2C(=O)Nc2ccc(N3CCN(c4ccnc(C(=O)N(C)C)c4)CC3)cc2)cnc2c1NCCO2` [Example 365, N,N-dimethyl-4-(4-(4-(4-((8-methyl-2,3-dihydro-1H-pyrido[2,3-b][1,4]oxazin-7-yl)amino)-2-oxo-1,2-dihydropyridine-3-carboxamido)phenyl)piperazin-1-yl)picolinamide], for which the IC50 lay in the range of 10 to 100 nM.

With `Cc1c(Nc2cc[nH]c(=O)c2C(=O)Nc2ccc(N3CCN(c4nccn4C)CC3)cc2)cnc2c1NCCO2` [Example 366, N-(4-(4-(1-methyl-1H-imidazol-2-yl)piperazin-1-yl)phenyl)-4-((8-methyl-2,3-dihydro-1H-pyrido[2,3-b][1,4]oxazin-7-yl)amino)-2-oxo-1,2-dihydropyridine-3-carboxamide], the IC50 was at most 10 nM. Take `Cc1c(Nc2cc[nH]c(=O)c2C(=O)Nc2ccc(N3CCN(c4cscn4)CC3)cc2)cnc2c1NCCO2` [Example 367, 4-((8-methyl-2,3-dihydro-1H-pyrido[2,3-b][1,4]oxazin-7-yl)amino)-2-oxo-N-(4-(4-(thiazol-4-yl)piperazin-1-yl)phenyl)-1,2-dihydropyridine-3-carboxamide]: the IC50 is 10 to 100 nM. With `CCOCCN1CCN(c2ccc(NC(=O)c3c(Nc4cnc5c(c4C)NCCO5)cc[nH]c3=O)cc2)CC1` [Example 368, N-(4-(4-(2-ethoxyethyl)piperazin-1-yl)phenyl)-4-((8-methyl-2,3-dihydro-1H-pyrido[2,3-b][1,4]oxazin-7-yl)amino)-2-oxo-1,2-dihydropyridine-3-carboxamide], the IC50 fell in the range of 10 to 100 nM. On to `COC(C)CN1CCN(c2ccc(NC(=O)c3c(Nc4cnc5c(c4C)NCCO5)cc[nH]c3=O)cc2)CC1` (stereo not drawn) [Example 369, N-(4-(4-(2-methoxypropyl)piperazin-1-yl)phenyl)-4-((8-methyl-2,3-dihydro-1H-pyrido[2,3-b][1,4]oxazin-7-yl)amino)-2-oxo-1,2-dihydropyridine-3-carboxamide], for which the IC50 lay in the range of 10 to 100 nM. As for `Cc1c(Nc2cc[nH]c(=O)c2C(=O)Nc2ccc(N3CCN(CC(C)C)CC3)cc2)cnc2c1NCCO2` [Example 370, N-(4-(4-isobutylpiperazin-1-yl)phenyl)-4-((8-methyl-2,3-dihydro-1H-pyrido[2,3-b][1,4]oxazin-7-yl)amino)-2-oxo-1,2-dihydropyridine-3-carboxamide], the figure is at most 10 nM; as for `Cc1c(Nc2cc[nH]c(=O)c2C(=O)Nc2ccc(N3CCN(c4nccs4)CC3)cc2)cnc2c1NCCO2` [Example 371, 4-((8-Methyl-2,3-dihydro-1H-pyrido[2,3-b][1,4]oxazin-7-yl)amino)-2-oxo-N-(4-(4-(thiazol-2-yl)piperazin-1-yl)phenyl)-1,2-dihydropyridine-3-carboxamide], 10 to 100 nM. Then `Cc1c(Nc2cc[nH]c(=O)c2C(=O)Nc2ccc(N3CCN(C(=O)C4CC4)CC3)cc2)cnc2c1NCC(C)O2` (stereo not drawn) [Example 372, N-(4-(4-(cyclopropanecarbonyl)piperazin-1-yl)phenyl)-4-((3,8-dimethyl-2,3-dihydro-1H-pyrido[2,3-b][1,4]oxazin-7-yl)amino)-2-oxo-1,2-dihydropyridine-3-carboxamide], with at most 10 nM. As to `Cc1c(Nc2cc[nH]c(=O)c2C(=O)Nc2ccc(N3CCN(C(=O)C4CN(C)C4)CC3)cc2)cnc2c1NCCO2` [Example 373, 4-((8-methyl-2,3-dihydro-1H-pyrido[2,3-b][1,4]oxazin-7-yl)amino)-N-(4-(4-(1-methylazetidine-3-carbonyl)piperazin-1-yl)phenyl)-2-oxo-1,2-dihydropyridine-3-carboxamide], the concentration for half-maximal inhibition (IC50) was 10 to 100 nM. As to `Cc1c(Nc2cc[nH]c(=O)c2C(=O)Nc2ccc(N3CCN4C(=O)CCCC4C3)cc2)cnc2c1NCCO2` (stereo not drawn) [Example 374, 4-((8-methyl-2,3-dihydro-1H-pyrido[2,3-b][1,4]oxazin-7-yl)amino)-2-oxo-N-(4-(6-oxooctahydro-2H-pyrido[1,2-a]pyrazin-2-yl)phenyl)-1,2-dihydropyridine-3-carboxamide], the IC50 was in the range of 10 to 100 nM.

These data come from patent US20250282794A1 (CURADEV PHARMA LTD, priority 2022, published 2025).
